Two compounds from US20120053197A1, “TRICYCLIC PYRIDINE DERIVATIVES, MEDICAMENTS CONTAINING SUCH COMPOUNDS, THEIR USE AND PROCESS FOR THEIR PREPARATION” (BOEHRINGER INGELHEIM INTERNATIONAL GMBH, priority 2010, published 2012) can be followed below.

In this assay the target is T1, recombinant human CETP (Homo sapiens, UniProt P11597).
T1 construct: made in house; host or cells: CHO cells (protein secreted into conditioned medium)
T1 sequence (P11597 18-493): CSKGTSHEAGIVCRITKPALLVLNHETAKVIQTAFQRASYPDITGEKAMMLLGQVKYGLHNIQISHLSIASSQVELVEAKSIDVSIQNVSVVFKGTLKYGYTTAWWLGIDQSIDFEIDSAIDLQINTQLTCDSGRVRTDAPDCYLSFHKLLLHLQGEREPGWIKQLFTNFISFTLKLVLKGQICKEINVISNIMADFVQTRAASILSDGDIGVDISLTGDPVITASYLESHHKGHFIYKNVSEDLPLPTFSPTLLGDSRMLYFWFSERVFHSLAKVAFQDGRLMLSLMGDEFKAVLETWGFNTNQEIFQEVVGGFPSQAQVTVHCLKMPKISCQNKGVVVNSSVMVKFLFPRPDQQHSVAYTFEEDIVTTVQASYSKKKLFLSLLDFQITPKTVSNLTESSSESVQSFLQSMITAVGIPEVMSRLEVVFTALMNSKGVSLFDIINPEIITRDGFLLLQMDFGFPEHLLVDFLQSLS
The assay is described as follows: CETP in vitro fluorometric assay (Roar Biomedical), cholesterol ester transfer from HDL to LDL. The format is biochemical. The conditions noted are these: recombinant human CETP from CHO cells; 3 hours at 37° C.; fluorescence ex 485 nm / em 535 nm; compound concentrations between 1 nM and 30 μM; read-out: IC50 values for inhibition of CETP. How it is done:
CETP inhibitory activity of compounds of the present invention can be determined in a fluorometric assay puchased from Roar Biomedical, Inc. (New York, N.Y., USA). […] Recombinant human CETP was partially purified from medium conditioned by CETP expressing CHO cells. In a 384 well format 2.5 μl of compound solution in DMSO was combined with 2 μl of donor solution, 2 μl of acceptor solution and 0.8 μl of recombinant human CETP solution in a total volume of 100 μl with assay buffer and incubated for 3 hours at 37° C. The fluorescence intensity was measured at excitation wavelength of 485 nm and emission wavelength of 535 nm. IC50 values are calculated from dose effect curves from compound concentrations between 1 nM and 30 μM.

On to `CC1(C)Cc2nc(C3CCCC3)c3c(c2[C@@H](O)C1)C1(CCCC1)O[C@@H]3c1cccc(C(C)(C)C)c1` [1(31), (3′R,9′S)-3′-(3-tert-butylphenyl)-4′-cyclopentyl-7′,7′-dimethyl-6′,7′,8′,9′-tetrahydro-3′H-spiro[cyclopentane-1,1′-furo[3,4-c]quinolin]-9′-ol], for which the IC50 (as a rule, the midpoint of a concentration-inhibition curve) was found to be 1.07 µM.
To `CC1(C)Cc2nc(C3CCCC3)c3c(c2[C@@H](O)C1)C(C)(C)O[C@@H]3c1ccc(C(C)(C)C)cc1` [1(19), (3R,9S)-3-(4-tert-butylphenyl)-4-cyclopentyl-1,1,7,7-tetramethyl-1,3,6,7,8,9-hexahydrofuro[3,4-c]quinolin-9-ol] belongs 0.351 µM.
